Reference: patent US11352350B2, “IRAK degraders and uses thereof” (Kymera Therapeutics, Inc., priority 2018, dated 2022)

Key:
IRAK4 [1] = target: T1, IRAK4 (Homo sapiens (Human), UniProt Q9NWZ3); test: IRAK4 MSD degradation in OCI-LY10; assay type: cell-based; settings: OCI-LY10, 4 hrs
Method in brief: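 OCI-LY10 cells treated with 8-point 1:3 dilutions (top 1 to 10 μM final) for 4 to 24 h at 37° C. Lysate IRAK4 measured by MSD sandwich immunoassay (2H9 capture, Y279 detection, SULFO-TAG anti-rabbit). DC50 from three-parameter logistic fit.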

IL-6 = IL-6 secretion in hPBMC using R848 stimulation; assay type: cell-based, human; settings: hPBMC, R848 as stim, t = 20 h
OCI-LY10 = test: CTG Cell Viability Assay - OCI-LY10; assay type: cell-based, human; settings: Homo sapiens, OCI-Ly10, 96 h, OCI-LY10, 4 days; read-out: CTG Cell Viability Assay - OCI-LY10: Average external-IC50
Method in brief: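 OCI-LY10 cells exposed to 9-dose, 1:3 dilutions from 10 μM top (0.2% DMSO) for 4 days at 37° C, 5% CO2. Viability by CellTiter-Glo luminescence; IC50 from three-parameter logistic fit.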

IRAK4 [2] = target: T1, IRAK4; test: hPBMC IRAK4 degradation flow assay; assay type: cell-based; settings: hPBMC monocyte
Method in brief: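 Thawed human PBMCs treated with 10-point, 5-fold compound dilutions (0.1% DMSO) at 37° C. for 20 hours or 4 hours. IRAK4 measured by flow MFI in CD14+ monocytes and CD14− lymphocytes, normalized to DMSO and 10 μM 20-hour control; DC50 and max degradation from 4-parameter logistic fit.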

[3] = read-out: IRAK4 MSD degradation in OCI-LY10 at 4 hrs: DC50
[4] = 20 hrs, read-out: IRAK4 degradation in hPBMC monocyte: DC50

T1 sequence (Q9NWZ3 whole entry): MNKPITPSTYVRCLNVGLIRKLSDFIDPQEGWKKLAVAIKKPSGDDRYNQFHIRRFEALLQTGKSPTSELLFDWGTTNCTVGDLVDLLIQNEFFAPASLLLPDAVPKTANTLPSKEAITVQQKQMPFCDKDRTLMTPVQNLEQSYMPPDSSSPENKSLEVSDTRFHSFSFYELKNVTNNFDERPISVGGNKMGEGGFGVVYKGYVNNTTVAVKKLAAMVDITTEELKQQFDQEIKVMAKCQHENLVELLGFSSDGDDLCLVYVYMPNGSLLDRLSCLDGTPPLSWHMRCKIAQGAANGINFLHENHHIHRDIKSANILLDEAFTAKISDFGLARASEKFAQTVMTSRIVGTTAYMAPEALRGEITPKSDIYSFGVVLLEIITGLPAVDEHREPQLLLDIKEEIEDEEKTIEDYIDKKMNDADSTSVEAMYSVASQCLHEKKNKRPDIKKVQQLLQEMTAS

| Structure (SMILES) | DC50 (IRAK4 [1]; MSD, read-out: IRAK4 MSD degradation in OCI-LY10 at 4 hrs: Average external-Abs DC50) [nM] | IC50 (IL-6; Homo sapiens, 20 h) [nM] | IC50 (OCI-LY10) [nM] | DC50 (IRAK4 [2]; 20 hr, flow assay, read-out: IRAK4 degradation in hPBMC monocyte at 20 hr: Average external Abs DC50) [nM] | DC50 (IRAK4 [1]; [3]) [nM] | DC50 (IRAK4 [2]; [4]) [nM] | IC50 (IL-6) [nM] |
| --- | --- | --- | --- | --- | --- | --- | --- |
| Cn1c(=O)n(C2CCC(=O)NC2=O)c2cccc(CCCCC3CCN(C(=O)c4ccc(-n5cc(NC(=O)c6cnn7ccc(N8C[C@H]9C[C@@H]8CO9)nc67)c(C(F)F)n5)cc4)CC3)c21 (some centres unmarked) [I-426] | 100 to 1000 | 1 to 10 | > 1000 | < 10 | – | – | – |
| O=C1CCC(n2c3ccccc3c3c(CCCN4CC5(CCN(C(=O)[C@H]6CC[C@H](n7cc(NC(=O)c8cnn9ccc(N%10C[C@H]%11C[C@@H]%10CO%11)nc89)c(C(F)F)n7)CC6)CC5)C4)ccnc32)C(=O)N1 (some centres unmarked) [I-447] | – | 1 to 10 | > 1000 | – | 10 to 100 | < 10 | – |
| Cn1c(=O)n(C2CCC(=O)NC2=O)c2cccc(CCCOC[C@@H]3CN(C[C@H]4CC[C@H](n5cc(NC(=O)c6cnn7ccc(N8CCOCC8)nc67)c(C(F)F)n5)CC4)CCO3)c21 (some centres unmarked) [I-448] | – | 1 to 10 | > 1000 | – | 10 to 100 | < 10 | – |
| Cn1c(=O)n(C2CCC(=O)NC2=O)c2cccc(CCCN3CCOC4(CCN(C[C@H]5CC[C@H](n6cc(NC(=O)c7cnn8ccc(N9C[C@H]%10C[C@@H]9CO%10)nc78)c(C(F)F)n6)CC5)CC4)C3)c21 (some centres unmarked) [I-450] | – | – | > 1000 | – | 10 to 100 | < 10 | 1 to 10 |
| CN(CCCc1cccc2c1n(C)c(=O)n2C1CCC(=O)NC1=O)C(=O)c1ccc(N2CCC(n3cc(NC(=O)c4cnn5ccc(N6C[C@H]7C[C@@H]6CO7)nc45)c(C(F)F)n3)CC2)cc1 (some centres unmarked) [I-479] | – | 10 to 100 | > 1000 | – | 100 to 1000 | 100 to 1000 | – |
| C[C@@H]1CN(c2ccn3ncc(C(=O)Nc4cn([C@H]5CC[C@H](C(=O)N6CCC7(CC6)CN(CCCc6cccc8c6n(C)c(=O)n8C6CCC(=O)NC6=O)C7)CC5)nc4C(F)F)c3n2)C[C@H](C)O1 (some centres unmarked) [I-480] | – | < 1 | > 1000 | – | 10 to 100 | < 10 | – |
| Cn1c(=O)n(C2CCC(=O)NC2=O)c2cccc(CCCOC3CCN(C[C@H]4CC[C@H](n5cc(NC(=O)c6cnn7cccnc67)c(N6CCOCC6)n5)CC4)CC3)c21 (some centres unmarked) [I-481] | – | 10 to 100 | > 1000 | – | 100 to 1000 | 100 to 1000 | – |
| O=C1CCC(n2c3cccc(C#CCOC4CCN(C[C@H]5CC[C@H](n6cc(NC(=O)c7cnn8ccc(N9C[C@H]%10C[C@@H]9CO%10)nc78)c(C(F)F)n6)CC5)CC4)c3c3cccnc32)C(=O)N1 (some centres unmarked) [I-482] | – | 1 to 10 | > 1000 | – | 10 to 100 | 100 to 1000 | – |
| Cn1c(=O)n(C2CCC(=O)NC2=O)c2cccc(C#CCN3CCC4(CC3)CN(C[C@H]3CC[C@H](n5cc(NC(=O)c6cnn7ccc(N8C[C@H]9C[C@@H]8CO9)nc67)c(C(F)F)n5)CC3)C4)c21 (some centres unmarked) [I-485] | – | 1 to 10 | > 1000 | – | 10 to 100 | < 10 | – |
| Cn1c(=O)n(C2CCC(=O)NC2=O)c2cccc(CCC3CC4(CCN(C[C@H]5CC[C@H](n6cc(NC(=O)c7cnn8ccc(N9C[C@H]%10C[C@@H]9CO%10)nc78)c(C(F)F)n6)CC5)CC4)C3)c21 (some centres unmarked) [I-486] | – | < 1 | > 1000 | – | < 10 | < 10 | – |
| Cn1c(=O)n(C2CCC(=O)NC2=O)c2cccc(CCC3CCN(C[C@H]4CC[C@H](n5cc(NC(=O)c6cnn7ccc(N8C[C@H]9C[C@@H]8CO9)nc67)c(C(F)F)n5)CC4)CC3)c21 (some centres unmarked) [I-487] | – | < 1 | > 1000 | – | 10 to 100 | < 10 | – |
| CN(CC(CCCOCCCc1cccc2c1n(C)c(=O)n2C1CCC(=O)NC1=O)C(=O)O)C[C@H]1CC[C@H](n2cc(NC(=O)c3cnn4ccc(N5C[C@H]6C[C@@H]5CO6)nc34)c(C(F)F)n2)CC1 (stereo partly drawn) [I-495, 2-[[[4-[3-(Difluoromethyl)-4-[[5-[(1R,4R)-2-oxa-5-azabicyclo [2.2.1]heptan-5-yl]pyrazolo [1,5-a]pyrimidine-3-carbonyl]amino]pyrazol-1-yl]cyclohexyl]methyl-methyl-amino]methyl]-5-[3-[1-(2,6-dioxo-3-piperidyl)-3-methyl-2-oxo-benzimidazol-4-yl]propoxy]pentanoic acid] | – | 10 to 100 | > 1000 | – | 100 to 1000 | 10 to 100 | – |
| Cn1c(=O)n(C2CCC(=O)NC2=O)c2cccc(C#CCCCOCc3ccc(-n4cc(NC(=O)c5cnn6ccc(N7C[C@H]8C[C@@H]7CO8)nc56)c(C(F)F)n4)cc3)c21 (stereo partly drawn) [I-498, N-[3-(difluoromethyl)-1-[4-[5-[1-(2,6-dioxo-3-piperidyl)-3-methyl-2-oxo-benzimidazol-4-yl]pent-4-ynoxymethyl]phenyl]pyrazol-4-yl]-5-[(1R,4R)-2-oxa-5-azabicyclo [2.2.1]heptan-5-yl] pyrazolo[1,5-a]pyrimidine-3-carboxamide] | – | 10 to 100 | > 1000 | – | 100 to 1000 | 100 to 1000 | – |
| Cc1ccc(-c2nn([C@H]3CC[C@H](C(=O)N4CCC5(CC4)CN(CCCc4cccc6c4n(C)c(=O)n6C4CCC(=O)NC4=O)C5)CC3)cc2NC(=O)c2cnn3cccnc23)nc1 (some centres unmarked) [I-499] | – | 1 to 10 | > 1000 | – | < 10 | < 10 | – |
| Cc1ccc(-c2nn([C@H]3CC[C@H](CN4CCC5(CC4)CN(CCCc4cccc6c4n(C)c(=O)n6C4CCC(=O)NC4=O)C5)CC3)cc2NC(=O)c2cnn3cccnc23)nc1 (some centres unmarked) [I-509] | – | 1 to 10 | > 1000 | – | 10 to 100 | 10 to 100 | – |
| Cn1c(=O)n(C2CCC(=O)NC2=O)c2cccc(CN3C[C@H]4CC[C@@H](C3)N4CC[C@H]3CC[C@H](n4cc(NC(=O)c5cnn6ccc(N7C[C@H]8C[C@@H]7CO8)nc56)c(C(F)F)n4)CC3)c21 (some centres unmarked) [I-511] | – | 1 to 10 | > 1000 | – | 10 to 100 | < 10 | – |
| Cn1c(=O)n(C2CCC(=O)NC2=O)c2cccc(CN3CCC(OC4CCN(C[C@H]5CC[C@H](n6cc(NC(=O)c7cnn8ccc(N9C[C@H]%10C[C@@H]9CO%10)nc78)c(C(F)F)n6)CC5)CC4)CC3)c21 (some centres unmarked) [I-513] | – | < 1 | > 1000 | – | < 10 | < 10 | – |
| Cn1c(=O)n(C2CCC(=O)NC2=O)c2cccc(CC[C@@H]3CN(C[C@H]4CC[C@H](C5N=C(NC(=O)c6cnn7ccc(N8CCCOCC8)nc67)C(C(F)F)=N5)CC4)CCO3)c21 (some centres unmarked) [I-514] | – | < 1 | > 1000 | – | < 10 | < 10 | – |
| Cn1c(=O)n(C2CCC(=O)NC2=O)c2cccc(CCCOC3CCN(C[C@H]4CC[C@H](n5cc(NC(=O)c6cnn7ccc(N8CCCOCC8)nc67)c(C(F)F)n5)CC4)CC3)c21 (some centres unmarked) [I-515] | – | < 1 | > 1000 | – | < 10 | < 10 | – |
| Cn1c(=O)n(C2CCC(=O)NC2=O)c2cccc(CC[C@H]3CN(C[C@H]4CC[C@H](n5cc(NC(=O)c6cnn7ccc(N8CCCOCC8)nc67)c(C(F)F)n5)CC4)CCO3)c21 (some centres unmarked) [I-516] | – | 1 to 10 | > 1000 | – | 10 to 100 | < 10 | – |
| Cn1c(=O)n(C2CCC(=O)NC2=O)c2cccc(CCC3CCN(c4ccc(CN5CCC(n6cc(NC(=O)c7cnn8ccc(N9C[C@H]%10C[C@@H]9CO%10)nc78)c(C(F)F)n6)CC5)cc4)CC3)c21 (some centres unmarked) [I-517] | – | 1 to 10 | > 1000 | – | 10 to 100 | < 10 | – |
| Cn1c(=O)n(C2CCC(=O)NC2=O)c2cccc(C#CCCCNC[C@H]3CC[C@H](n4cc(NC(=O)c5cnn6ccc(N7C[C@H]8C[C@@H]7CO8)nc56)c(C(F)F)n4)CC3)c21 (stereo partly drawn) [I-518, N-[3-(difluoromethyl)-1-[4-[[5-[1-(2,6-dioxo-3-piperidyl)-3-methyl-2-oxo-benzimidazol-4-yl]pent-4-ynylamino]methyl]cyclohexyl]pyrazol-4-yl]-5-[(1R)-2-oxa-5-azabicyclo[2.2.1]heptan-5-yl]pyrazolo[1,5-a]pyrimidine-3-carboxamide] | – | 1 to 10 | > 1000 | – | 10 to 100 | < 10 | – |
| Cn1c(=O)n(C2CCC(=O)NC2=O)c2cccc(CCCC3CCN(C[C@H]4CC[C@H](n5cc(NC(=O)c6cnn7ccc(N8CCOC(C)(C)C8)nc67)c(C(F)F)n5)CC4)CC3)c21 (some centres unmarked) [I-525] | – | < 1 | > 1000 | – | 10 to 100 | < 10 | – |
| Cn1c(=O)n(C2CCC(=O)NC2=O)c2cccc(OC3CC4(CCN(C[C@H]5CC[C@H](n6cc(NC(=O)c7cnn8ccc(N9C[C@H]%10C[C@@H]9CO%10)nc78)c(C(F)F)n6)CC5)CC4)C3)c21 (some centres unmarked) [I-526] | – | < 1 | > 1000 | – | < 10 | < 10 | – |
| Cn1c(=O)n(C2CCC(=O)NC2=O)c2cccc(C#CCC3CCN(C[C@H]4CC[C@H](C5N=C(NC(=O)c6cnn7ccc(N8CCOC(C)(C)C8)cc67)C(C(F)F)=N5)CC4)CC3)c21 (some centres unmarked) [I-532] | – | 1 to 10 | > 1000 | – | 10 to 100 | 10 to 100 | – |
| CN1C(=O)C(C2CCC(=O)NC2=O)c2cc(CCCOC3CCN(C[C@H]4CC[C@H](C5N=C(NC(=O)c6cnn7ccc(N8C[C@H]9C[C@@H]8CO9)nc67)C(C(F)F)=N5)CC4)CC3)ccc21 (some centres unmarked) [I-553] | – | 1 to 10 | > 1000 | – | 100 to 1000 | 10 to 100 | – |
